# From the kinase profiling compilation of Christmann-Franck et al. (2016)
# Columns and labels:
# Experiment in all cases: KINOMEscan competition binding
# Details in all cases: compound 1.0 µM
# [1] = target: ACVR2B (human) (UniProt Q13705)
# [2] = target: AURKA (human) (UniProt O14965)
# [3] = target: BMP2K (human) (UniProt Q9NSY1)
# [4] = target: CAMK4 (human) (UniProt Q16566)
# [5] = target: CDK3 (human) (UniProt Q00526)
# [6] = target: CDK9 (human) (UniProt P50750)
# [7] = target: CHEK2 (human) (UniProt O96017)
# [8] = target: CSNK1A1 (human) (UniProt P48729)
# [9] = target: DAPK2 (human) (UniProt Q9UIK4)
# [10] = target: DCLK3 (human) (UniProt Q9C098)
# DCLK3 (human), sequence (Q9C098 whole entry, looked up): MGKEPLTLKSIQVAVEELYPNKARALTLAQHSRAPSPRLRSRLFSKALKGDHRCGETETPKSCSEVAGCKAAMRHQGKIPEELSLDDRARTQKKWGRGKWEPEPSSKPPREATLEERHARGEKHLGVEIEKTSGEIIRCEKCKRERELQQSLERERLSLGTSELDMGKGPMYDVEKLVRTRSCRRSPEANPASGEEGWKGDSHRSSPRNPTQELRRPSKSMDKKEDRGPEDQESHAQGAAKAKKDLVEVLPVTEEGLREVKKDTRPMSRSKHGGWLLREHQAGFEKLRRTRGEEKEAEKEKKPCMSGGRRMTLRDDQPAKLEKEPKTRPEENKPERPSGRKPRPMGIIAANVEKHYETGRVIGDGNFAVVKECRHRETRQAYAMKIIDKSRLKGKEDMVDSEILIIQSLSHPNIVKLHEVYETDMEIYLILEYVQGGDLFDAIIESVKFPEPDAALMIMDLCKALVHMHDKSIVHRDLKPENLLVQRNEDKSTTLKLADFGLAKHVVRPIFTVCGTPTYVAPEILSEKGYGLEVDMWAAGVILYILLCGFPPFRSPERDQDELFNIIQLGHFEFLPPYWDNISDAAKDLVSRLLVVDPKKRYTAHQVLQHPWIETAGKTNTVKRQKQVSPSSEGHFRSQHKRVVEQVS
# [11] = target: DDR1 (human) (UniProt Q08345)
# DDR1 (human), sequence (Q08345 whole entry, looked up): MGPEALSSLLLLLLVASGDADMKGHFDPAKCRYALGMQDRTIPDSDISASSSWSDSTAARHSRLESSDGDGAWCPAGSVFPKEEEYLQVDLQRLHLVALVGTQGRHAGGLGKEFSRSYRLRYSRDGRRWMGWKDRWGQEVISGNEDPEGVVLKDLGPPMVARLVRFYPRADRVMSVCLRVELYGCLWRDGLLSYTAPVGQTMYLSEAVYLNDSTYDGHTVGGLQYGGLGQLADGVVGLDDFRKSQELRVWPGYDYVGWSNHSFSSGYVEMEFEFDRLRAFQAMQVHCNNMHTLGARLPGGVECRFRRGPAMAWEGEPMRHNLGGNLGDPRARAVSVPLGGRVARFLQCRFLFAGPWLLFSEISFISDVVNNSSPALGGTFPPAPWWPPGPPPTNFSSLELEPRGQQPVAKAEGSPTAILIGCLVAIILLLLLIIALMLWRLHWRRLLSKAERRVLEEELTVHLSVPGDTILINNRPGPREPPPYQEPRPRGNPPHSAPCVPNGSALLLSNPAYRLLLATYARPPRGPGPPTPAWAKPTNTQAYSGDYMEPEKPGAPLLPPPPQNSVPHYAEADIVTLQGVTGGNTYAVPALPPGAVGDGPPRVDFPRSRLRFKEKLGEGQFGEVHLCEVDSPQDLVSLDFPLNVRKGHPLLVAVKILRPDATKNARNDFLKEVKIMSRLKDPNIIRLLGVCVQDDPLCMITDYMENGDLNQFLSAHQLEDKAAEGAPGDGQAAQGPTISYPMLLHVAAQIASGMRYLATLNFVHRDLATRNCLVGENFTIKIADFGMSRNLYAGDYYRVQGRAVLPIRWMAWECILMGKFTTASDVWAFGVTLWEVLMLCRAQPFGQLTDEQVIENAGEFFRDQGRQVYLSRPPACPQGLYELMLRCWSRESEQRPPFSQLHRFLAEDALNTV
# [12] = test system: EGFR (human), P00533 [746-750 del]
# [13] = test system: EGFR (human), P00533 [P753S; 747-752 del]
# [14] = target: FGFR4 (human) (UniProt P22455)
# [15] = target: FLT1 (human) (UniProt P17948)
# [16] = target: IGF1R (human) (UniProt P08069)
# [17] = target: IRAK1 (human) (UniProt P51617)
# [18] = test system: KIT (human), P10721 [A829P]
# [19] = target: MAP2K3 (human) (UniProt P46734)
# MAP2K3 (human), sequence (P46734 whole entry, looked up): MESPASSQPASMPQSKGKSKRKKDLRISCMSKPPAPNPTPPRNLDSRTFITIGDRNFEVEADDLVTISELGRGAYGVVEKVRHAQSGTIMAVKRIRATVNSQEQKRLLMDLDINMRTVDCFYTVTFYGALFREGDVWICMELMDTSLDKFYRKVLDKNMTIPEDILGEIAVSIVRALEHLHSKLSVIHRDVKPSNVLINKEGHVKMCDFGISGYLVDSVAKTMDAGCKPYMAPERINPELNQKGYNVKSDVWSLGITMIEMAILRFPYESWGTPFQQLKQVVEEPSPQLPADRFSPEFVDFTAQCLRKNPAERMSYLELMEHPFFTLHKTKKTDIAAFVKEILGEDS
# [20] = target: MAP3K10 (human) (UniProt Q02779)
# [21] = target: MAP3K4 (human) (UniProt Q9Y6R4)
# [22] = target: MAPK8 (human) (UniProt P45983)
# MAPK8 (human), sequence (P45983 whole entry, looked up): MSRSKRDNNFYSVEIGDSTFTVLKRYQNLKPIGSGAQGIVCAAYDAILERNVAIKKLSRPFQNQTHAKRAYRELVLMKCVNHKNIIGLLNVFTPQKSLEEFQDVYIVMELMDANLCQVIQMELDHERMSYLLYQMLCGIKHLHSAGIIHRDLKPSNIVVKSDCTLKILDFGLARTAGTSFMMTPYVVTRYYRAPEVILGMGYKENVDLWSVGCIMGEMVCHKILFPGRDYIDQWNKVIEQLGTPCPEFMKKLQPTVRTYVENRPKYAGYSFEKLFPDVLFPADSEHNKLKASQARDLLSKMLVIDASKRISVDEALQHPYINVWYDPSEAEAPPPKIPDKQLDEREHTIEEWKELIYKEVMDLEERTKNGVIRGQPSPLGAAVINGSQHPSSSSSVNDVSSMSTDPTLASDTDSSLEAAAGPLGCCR
# [23] = target: MAPKAPK5 (human) (UniProt Q8IW41)
# [24] = target: MYLK (human) (UniProt Q15746)
# [25] = target: NEK9 (human) (UniProt Q8TD19)
# [26] = target: NLK (human) (UniProt Q9UBE8)
# [27] = target: PAK1 (human) (UniProt Q13153)
# [28] = target: PAK6 (human) (UniProt Q9NQU5)
# [29] = target: PAK7 (human) (UniProt Q9P286)
# [30] = target: PDGFRA (human) (UniProt P16234)
# [31] = target: PIK3CG (human) (UniProt P48736)
# [32] = target: PKN3 (M.tuberculosis) (UniProt Q6P5Z2)
# [33] = target: PRKACA (human) (UniProt P17612)
# [34] = target: PRKD3 (human) (UniProt O94806)
# [35] = target: RIOK1 (human) (UniProt Q9BRS2)
# [36] = target: RPS6KA2 KD2 (human) (UniProt Q15349)
# RPS6KA2 KD2 (human), sequence (Q15349 whole entry, looked up): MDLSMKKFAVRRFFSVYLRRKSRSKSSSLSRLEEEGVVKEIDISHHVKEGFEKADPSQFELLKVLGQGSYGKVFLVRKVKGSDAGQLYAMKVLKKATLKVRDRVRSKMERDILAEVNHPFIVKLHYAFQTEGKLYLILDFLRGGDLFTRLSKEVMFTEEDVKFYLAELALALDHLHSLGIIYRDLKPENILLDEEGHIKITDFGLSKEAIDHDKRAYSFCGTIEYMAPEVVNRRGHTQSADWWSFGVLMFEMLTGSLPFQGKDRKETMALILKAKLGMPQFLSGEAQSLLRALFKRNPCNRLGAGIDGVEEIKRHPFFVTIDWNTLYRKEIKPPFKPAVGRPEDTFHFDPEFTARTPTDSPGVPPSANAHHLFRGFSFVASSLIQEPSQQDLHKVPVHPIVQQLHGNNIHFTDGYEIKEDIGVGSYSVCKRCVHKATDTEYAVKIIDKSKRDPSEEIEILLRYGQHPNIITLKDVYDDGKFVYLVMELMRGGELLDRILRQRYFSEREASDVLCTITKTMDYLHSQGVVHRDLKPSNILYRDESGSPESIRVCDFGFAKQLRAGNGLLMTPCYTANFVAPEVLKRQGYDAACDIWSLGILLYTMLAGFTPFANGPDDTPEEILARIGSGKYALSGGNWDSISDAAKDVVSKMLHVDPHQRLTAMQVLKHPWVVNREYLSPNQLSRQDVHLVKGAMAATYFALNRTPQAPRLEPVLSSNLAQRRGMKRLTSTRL
# [37] = target: RPS6KB1 (human) (UniProt P23443)
# [38] = target: STK3 (human) (UniProt Q13188)
# [39] = target: STK39 (human) (UniProt Q9UEW8)
# [40] = target: TGFBR2 (human) (UniProt P37173)
# [41] = target: TIE1 (human) (UniProt P35590)
# TIE1 (human), sequence (P35590 whole entry, looked up): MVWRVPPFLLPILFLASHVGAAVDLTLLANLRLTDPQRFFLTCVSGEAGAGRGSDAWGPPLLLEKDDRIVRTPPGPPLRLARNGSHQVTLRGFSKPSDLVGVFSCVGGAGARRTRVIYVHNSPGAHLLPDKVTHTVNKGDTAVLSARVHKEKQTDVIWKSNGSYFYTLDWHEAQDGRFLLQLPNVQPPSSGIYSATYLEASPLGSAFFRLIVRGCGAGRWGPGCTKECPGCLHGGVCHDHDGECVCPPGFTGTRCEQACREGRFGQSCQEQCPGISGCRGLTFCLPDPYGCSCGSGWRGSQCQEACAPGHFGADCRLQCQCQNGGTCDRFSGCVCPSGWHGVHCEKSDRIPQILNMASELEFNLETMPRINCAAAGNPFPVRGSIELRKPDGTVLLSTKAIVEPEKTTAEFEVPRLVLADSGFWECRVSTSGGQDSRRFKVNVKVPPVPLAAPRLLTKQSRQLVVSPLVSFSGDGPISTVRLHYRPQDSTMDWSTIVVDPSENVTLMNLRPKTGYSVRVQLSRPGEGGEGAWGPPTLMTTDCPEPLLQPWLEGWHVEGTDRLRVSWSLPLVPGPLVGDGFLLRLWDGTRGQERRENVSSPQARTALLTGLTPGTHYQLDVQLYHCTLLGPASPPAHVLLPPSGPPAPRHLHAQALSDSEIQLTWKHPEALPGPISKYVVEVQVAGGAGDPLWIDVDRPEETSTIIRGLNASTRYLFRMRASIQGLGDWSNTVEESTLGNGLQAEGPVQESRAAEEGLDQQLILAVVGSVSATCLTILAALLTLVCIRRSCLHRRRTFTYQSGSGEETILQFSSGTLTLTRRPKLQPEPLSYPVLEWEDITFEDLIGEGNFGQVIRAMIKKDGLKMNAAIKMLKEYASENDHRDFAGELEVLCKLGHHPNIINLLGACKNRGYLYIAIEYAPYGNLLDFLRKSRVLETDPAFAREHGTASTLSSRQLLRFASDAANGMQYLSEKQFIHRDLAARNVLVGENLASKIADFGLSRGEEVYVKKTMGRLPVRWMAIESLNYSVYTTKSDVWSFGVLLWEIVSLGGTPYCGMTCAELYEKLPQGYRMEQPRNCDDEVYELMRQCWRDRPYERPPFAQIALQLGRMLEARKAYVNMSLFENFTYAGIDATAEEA
# [42] = target: TSSK1B (human) (UniProt Q9BXA7)
# [43] = target: VRK2 (human) (UniProt Q86Y07)
# ACVR2B (human), sequence (Q13705 whole entry, looked up): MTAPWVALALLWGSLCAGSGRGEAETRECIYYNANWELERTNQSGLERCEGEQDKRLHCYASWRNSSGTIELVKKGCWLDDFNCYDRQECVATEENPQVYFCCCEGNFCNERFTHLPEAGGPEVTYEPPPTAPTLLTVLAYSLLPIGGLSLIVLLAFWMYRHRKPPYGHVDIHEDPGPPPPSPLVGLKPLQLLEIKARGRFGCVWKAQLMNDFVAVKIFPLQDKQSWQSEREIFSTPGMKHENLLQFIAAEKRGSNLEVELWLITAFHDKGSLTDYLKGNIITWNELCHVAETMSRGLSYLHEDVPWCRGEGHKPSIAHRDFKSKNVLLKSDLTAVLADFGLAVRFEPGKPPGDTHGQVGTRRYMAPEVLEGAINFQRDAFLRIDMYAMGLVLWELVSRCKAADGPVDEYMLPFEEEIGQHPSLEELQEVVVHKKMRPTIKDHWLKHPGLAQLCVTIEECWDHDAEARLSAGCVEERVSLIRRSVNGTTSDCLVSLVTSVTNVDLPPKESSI
# CDK3 (human), sequence (Q00526 whole entry, looked up): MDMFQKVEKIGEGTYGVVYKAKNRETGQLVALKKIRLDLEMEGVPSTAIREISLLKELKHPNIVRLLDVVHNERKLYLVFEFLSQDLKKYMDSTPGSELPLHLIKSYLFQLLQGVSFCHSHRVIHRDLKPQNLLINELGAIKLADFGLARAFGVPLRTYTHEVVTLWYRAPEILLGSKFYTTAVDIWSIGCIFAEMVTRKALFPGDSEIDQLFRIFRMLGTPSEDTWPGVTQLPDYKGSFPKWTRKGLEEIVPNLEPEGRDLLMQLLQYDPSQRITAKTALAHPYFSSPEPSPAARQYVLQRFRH
smiles,measurement,setting,value
COCCNCCCn1c(C(=O)CF)c(-c2ccc(C)cc2)c2c(N)ncnc21,"kinase still bound, per cent of control",[1],95%
same,"kinase still bound, per cent of control",[2],92%
same,"kinase still bound, per cent of control",[3],94%
same,"kinase still bound, per cent of control",[4],100%
same,"kinase still bound, per cent of control",[5],100%
same,"kinase still bound, per cent of control",[6],100%
same,"kinase still bound, per cent of control",[7],100%
same,"kinase still bound, per cent of control",[8],100%
same,"kinase still bound, per cent of control",[9],97%
same,"kinase still bound, per cent of control",[10],100%
same,"kinase still bound, per cent of control",[11],100%
same,"kinase still bound, per cent of control",[12],100%
same,"kinase still bound, per cent of control",[13],100%
same,"kinase still bound, per cent of control",[14],100%
same,"kinase still bound, per cent of control",[15],96%
same,"kinase still bound, per cent of control",[16],100%
same,"kinase still bound, per cent of control",[17],93%
same,"kinase still bound, per cent of control",[18],85%
same,"kinase still bound, per cent of control",[19],97%
same,"kinase still bound, per cent of control",[20],77%
same,"kinase still bound, per cent of control",[21],100%
same,"kinase still bound, per cent of control",[22],96%
same,"kinase still bound, per cent of control",[23],100%
same,"kinase still bound, per cent of control",[24],100%
same,"kinase still bound, per cent of control",[25],99%
same,"kinase still bound, per cent of control",[26],96%
same,"kinase still bound, per cent of control",[27],89%
same,"kinase still bound, per cent of control",[28],93%
same,"kinase still bound, per cent of control",[29],82%
same,"kinase still bound, per cent of control",[30],83%
same,"kinase still bound, per cent of control",[31],100%
same,"kinase still bound, per cent of control",[32],100%
same,"kinase still bound, per cent of control",[33],100%
same,"kinase still bound, per cent of control",[34],100%
same,"kinase still bound, per cent of control",[35],69%
same,"kinase still bound, per cent of control",[36],95%
same,"kinase still bound, per cent of control",[37],100%
same,"kinase still bound, per cent of control",[38],95%
same,"kinase still bound, per cent of control",[39],100%
same,"kinase still bound, per cent of control",[40],100%
same,"kinase still bound, per cent of control",[41],100%
same,"kinase still bound, per cent of control",[42],100%
same,"kinase still bound, per cent of control",[43],100%
